Read-outs that look alike come from different tables or passages of the source.
How the values were obtained:
Type in all cases: cell-based, human
cancer cell lines = assay: Cell viability analysis (WST-1) on cancer cell lines; settings: drug 10 μM, 72 hours, WST-1; Table 3
[1] = test system: HI650 (Lung Adenocarcinoma); assay: Cell viability analysis, lung cancer HI650; settings: Homo sapiens, NCI-H1650, 72 h
[2] = test system: A549 (Lung Adenocarcinoma); assay: Cell viability analysis, lung cancer A549; settings: Homo sapiens, A549, 72 h
[3] = test system: AGS (Gastric Adenocarcinoma); assay: Cell viability analysis, gastric cancer AGS; settings: Homo sapiens, 72 h
[4] = test system: MKN-45 (Gastric Adenocarcinoma); assay: Cell viability analysis, gastric cancer MKN-45; settings: Homo sapiens, MKN-45, 72 h
[5] = test system: HepG2 (Hepatocellular Carcinoma); assay: Cell viability analysis, hepatic cancer HepG2; settings: Homo sapiens, HepG2, 72 h
[6] = test system: LoVo (Colorectal Adenocarcinoma); assay: Cell viability analysis, colon cancer LoVo; settings: Homo sapiens, LoVo, 72 h
[7] = test system: A375 (Amelanotic Melanoma); assay: Cell viability analysis, skin cancer A375; settings: Homo sapiens, A-375, 72 h
[8] = test system: HeLa (Cervix Adenocarcinoma); assay: Cell viability analysis, cervical cancer HeLa; settings: Homo sapiens, HeLa, 72 h
[9] = test system: PC3 (p53−) (Prostate Adenocarcinoma); assay: Cell viability analysis, prostate cancer PC3; settings: Homo sapiens, 72 h
[10] = test system: TSGH-8301 (Urinary Bladder Carcinoma); assay: Cell viability analysis, bladder cancer TSGH-8301; settings: Homo sapiens, 72 h
[11] = test system: MCF7 (Mammary Gland, Adenocarcinoma); assay: Cell viability analysis, breast cancer MCF7; settings: Homo sapiens, MCF7, 72 h
[12] = test system: HL-60 (Acute Promyelocytic Leukemia); assay: Cell viability analysis, leukemia HL-60; settings: Homo sapiens, HL-60, 72 h
[13] = read-out: cell viability (survival rate), H1650, drug 10 μM, 72 hours, WST-1, OD450 nm
[14] = read-out: cell viability (survival rate), A549, drug 10 μM, 72 hours, WST-1, OD450 nm
[15] = read-out: cell viability (survival rate), AGS, drug 10 μM, 72 hours, WST-1, OD450 nm
[16] = read-out: cell viability (survival rate), MKN-45, drug 10 μM, 72 hours, WST-1, OD450 nm
[17] = read-out: cell viability (survival rate), HepG2, drug 10 μM, 72 hours, WST-1, OD450 nm
[18] = read-out: cell viability (survival rate), LoVo, drug 10 μM, 72 hours, WST-1, OD450 nm
[19] = read-out: cell viability (survival rate), A375, drug 10 μM, 72 hours, WST-1, OD450 nm
[20] = read-out: cell viability (survival rate), HeLa, drug 10 μM, 72 hours, WST-1, OD450 nm
[21] = read-out: cell viability (survival rate), PC3, drug 10 μM, 72 hours, WST-1, OD450 nm
[22] = read-out: cell viability (survival rate), TSGH, drug 10 μM, 72 hours, WST-1, OD450 nm
[23] = read-out: cell viability (survival rate), MCF7, drug 10 μM, 72 hours, WST-1, OD450 nm
[24] = read-out: cell viability (survival rate), HL-60, drug 10 μM, 72 hours, WST-1, OD450 nm
[25] = drug 10 μM, 72 hours, WST-1, OD450 nm, read-out: cell viability (survival rate), H1650
[26] = drug 10 μM, 72 hours, WST-1, OD450 nm, read-out: cell viability (survival rate), A549
[27] = drug 10 μM, 72 hours, WST-1, OD450 nm, read-out: cell viability (survival rate), AGS
[28] = drug 10 μM, 72 hours, WST-1, OD450 nm, read-out: cell viability (survival rate), MKN-45
[29] = drug 10 μM, 72 hours, WST-1, OD450 nm, read-out: cell viability (survival rate), HepG2
[30] = drug 10 μM, 72 hours, WST-1, OD450 nm, read-out: cell viability (survival rate), A375
[31] = drug 10 μM, 72 hours, WST-1, OD450 nm, read-out: cell viability (survival rate), HeLa
[32] = drug 10 μM, 72 hours, WST-1, OD450 nm, read-out: cell viability (survival rate), PC3
[33] = drug 10 μM, 72 hours, WST-1, OD450 nm, read-out: cell viability (survival rate), TSGH
[34] = drug 10 μM, 72 hours, WST-1, OD450 nm, read-out: cell viability (survival rate), MCF7
[35] = drug 10 μM, 72 hours, WST-1, OD450 nm, read-out: cell viability (survival rate), HL-60

SMILES	inhibition effect on different cancer cell lines (cancer cell lines)	viability at 10 µM [1, 13] [%]	viability at 10 µM [2, 14] [%]	viability at 10 µM [3, 15] [%]	viability at 10 µM [4, 16] [%]	viability at 10 µM [5, 17] [%]	viability at 10 µM [6, 18] [%]	viability at 10 µM [7, 19] [%]	viability at 10 µM [8, 20] [%]	viability at 10 µM [1, 25] [%]	viability at 10 µM [2, 26] [%]	viability at 10 µM [3, 27] [%]	viability at 10 µM [4, 28] [%]	viability at 10 µM [5, 29] [%]	viability at 10 µM [7, 30] [%]	viability at 10 µM [8, 31] [%]	viability at 10 µM [9, 32] [%]	viability at 10 µM [10, 33] [%]	viability at 10 µM [11, 34] [%]	viability at 10 µM [12, 35] [%]	other results
C[C@@H]1CN(c2c(F)c(N)c3c(=O)c(C(=O)O)cn(C4CC4)c3c2F)C[C@H](C)N1 [Sparfloxacin]	significant inhibition effect	88.5	86.5	79.9	57.5	97.6	97	82.6	88.3	–	–	–	–	–	–	–	–	–	–	–	viability at 10 µM [9, 21]: 50.1%; viability at 10 µM [10, 22]: 68.1%; viability at 10 µM [11, 23]: 56.3%; viability at 10 µM [12, 24]: 99.3%
NC(=O)C(c1ccccc1)(c1ccccc1)[C@@H]1CCN(CCc2ccc3c(c2)CCO3)C1 [Darifenacin HBr]	significant inhibition effect	–	–	–	–	–	–	–	–	126	100	80.4	82.4	81.6	60.5	87.7	86.1	99.8	59.7	78.2	viability at 10 µM ([6]; drug 10 μM, 72 hours, WST-1, OD450 nm, read-out: cell viability (survival rate), LoVo): 93.5%
C[C@@H](O)[C@H]1C(=O)N2C(C(=O)[O-])=C(SC3Cn4cnc[n+]4C3)[C@H](C)[C@H]12 (stereo partly drawn) [Biapenem]	significant inhibition effect	42.2	90.1	75.1	81.5	66.4	88.7	60.4	54	–	–	–	–	–	–	–	–	–	–	–	viability at 10 µM [9, 21]: 80.3%; viability at 10 µM [10, 22]: 117%; viability at 10 µM [11, 23]: 136%; viability at 10 µM [12, 24]: 95.5%
Cc1c(OCC(F)(F)F)ccnc1C[S+]([O-])c1nc2ccccc2[nH]1 (stereo not drawn) [Lansoprazole]	significant inhibition effect	–	–	–	–	–	96.1	–	–	45.5	84.5	71.5	74.5	72.3	60.6	53.6	94.2	109	141	78.6	–
O=C(C[S+]([O-])Cc1ccco1)NC/C=C\COc1cc(CN2CCCCC2)ccn1 (stereo not drawn) [Lafutidine]	significant inhibition effect	–	–	–	–	–	48	–	–	80.1	21.3	45.5	89.6	102	116	46.9	40.7	51.9	33.6	95.3	–
CCOc1ccc2nc3cc(N)ccc3c(N)c2c1 [Ethacridine lactate monohydrate]	significant inhibition effect	–	–	–	–	–	50.1	–	–	52.5	75.1	38.2	49.7	65.5	40.1	39.9	64.6	46.8	68.7	44.1	–
C[C@@H]1CN(c2c(F)c(F)c3c(=O)c(C(=O)O)cn(C4CC4)c3c2F)C[C@H](C)N1 [Orbifloxacin]	significant inhibition effect	–	–	–	–	–	75.4	–	–	63.7	44.2	84.5	44.1	84.2	55.6	66.8	51.1	44.3	33.3	92.3	–
NC1CCN(c2c(F)cc3c(=O)c(C(=O)O)cn(C4CC4)c3c2Cl)C1 (stereo not drawn) [Clinafloxacin (PD127391), Clinafloxacin]	significant inhibition effect	72.4	67.5	74.2	91.3	73.8	92.7	59.3	97	–	–	–	–	–	–	–	–	–	–	–	viability at 10 µM [9, 21]: 36.7%; viability at 10 µM [10, 22]: 83.3%; viability at 10 µM [11, 23]: 78.6%; viability at 10 µM [12, 24]: 71.2%
c1ccc(-c2ccc(C(c3ccccc3)n3ccnc3)cc2)cc1 (stereo not drawn) [Bifonazole]	significant inhibition effect	55.9	79.3	64.3	50.5	109	81.1	94.9	67.2	–	–	–	–	–	–	–	–	–	–	–	viability at 10 µM [9, 21]: 78.2%; viability at 10 µM [10, 22]: 82.1%; viability at 10 µM [11, 23]: 73.3%; viability at 10 µM [12, 24]: 119%
O=C(O)c1cccnc1Nc1cccc(C(F)(F)F)c1 [Niflumic acid]	significant inhibition effect	–	–	–	–	–	82	–	–	50.8	99.2	40.5	68.7	87.4	50	51.9	111	66.8	86.9	132	–
CCCCCCCCCCCCCCCCCCCCCCO [Docosanol (Abreva), Docosanol]	significant inhibition effect	–	–	–	–	–	89.4	–	–	69.3	44	40.6	52.4	83.6	84.6	76.9	70.2	54.8	39.1	116	–
C[C@]12C=CC(=O)C=C1CC[C@@H]1[C@@H]2[C@@H](O)C[C@@]2(C)[C@H]1CC[C@]2(O)C(=O)CO [Prednisolone (Hydroretrocortine), Prednisolone]	significant inhibition effect	82.5	71.3	124	67.8	82.7	92.5	71	78.7	–	–	–	–	–	–	–	–	–	–	–	viability at 10 µM [9, 21]: 83.3%; viability at 10 µM [10, 22]: 86.2%; viability at 10 µM [11, 23]: 45.5%; viability at 10 µM [12, 24]: 99%
